According to patent US8575349B2, “Derivatives of 1-alkyl-6-oxo-piperidine-3-carboxylic acids and 1-alkyl-5-oxo-pyrrolidine-3-carboxylic acids and their uses as cooling compounds” (International Flavors & Fragrances Inc., priority 2010, dated 2013):

Columns and labels:
Format in all cases: in vivo
[1] = Taste evaluation of the compound in water (cooling effect)
[2] = Hard candy containing the compound: cooling/taste profile over time; details: 300 ppm; for overall effect of test candy versus control candy: cherry flavored hard candy; for Profile: hard candy
Experimental: First, the following formulation was prepared: […]
The above formulation was added to a stainless steel pot. With constant mixing, the formulation temperature was raised to 138° C. The pot was then removed from the heat, allowing cool to 120° C. and 0.7 g of flavor containing the ingredients in equal amounts: benzaldehyde, tolyl aldehyde, ethyl acetate, maltol, Davana oil, methyl heptinyl carbonate and 3 g of citric acid was added. The resulting cherry flavored liquid candy was then deposited into molds, and the molds containing the liquid candy were cooled to room temperature, yielding 600 g of finished hard candy. […] A test candy was further prepared using the above recipe modified by adding 0.18 g of 1-(2-isopropyl-5-methyl-cyclohexyl)-4-(pyrrolidine-1-carbonyl)-pyrrolidin-2-one (Structure VI, 300 ppm) or 1-(2-isopropyl-5-methyl-cyclohexyl)-4-(piperidine-1-carbonyl)-pyrrolidin-2-one (Structure VII, 300 ppm).

[3] = Chewing gum containing the compound: cooling/taste profile over time; details: for Profile: gum; for overall effect of test gum versus control gum: orange-flavored gum
Experimental: The above formulation was prepared in a Sigma mixer. The resultant chewing gum blend was manufactured into strips of 1 inch in width and 0.1 inches in thickness. The strips were subsequently cut into a length of 3 inches each. […] A test gum was further prepared by adding 1-(2-isopropyl-5-methyl-cyclohexyl)-4-(pyrrolidine-1-carbonyl)-pyrrolidin-2-one (Structure VI, 800 ppm) or 1-(2-isopropyl-5-methyl-cyclohexyl)-4-(piperidine-1-carbonyl)-pyrrolidin-2-one (Structure VII, 1200 ppm).

With `COC(=O)C1CC(=O)N(C2CC(C)CCC2C(C)C)C1` (stereo not shown) [Structure I, 1-(2-isopropyl-5-methyl-cyclohexyl)-5-oxo-pyrrolidine-3-carboxylic acid methyl ester] the “taste description / cooling effect” value ([1]; 10 ppm in water) was “mild cooling effect”.

For `CC1CCC(C(C)C)C(N2CC(C(=O)O)CC2=O)C1` (stereo not shown) [Structure II, 1-(2-isopropyl-5-methyl-cyclohexyl)-5-oxo-pyrrolidine-3-carboxylic acid], the “taste description / cooling effect” value ([1]; 10 ppm in water) was “some cooling effect developed in the back of throat”.

For `CC(C)CNC(=O)C1CC(=O)N(C2CC(C)CCC2C(C)C)C1` (stereo not shown) [Structure III, 1-(2-isopropyl-5-methyl-cyclohexyl)-5-oxo-pyrrolidine-3-carboxylic acid isobutyl-amide], the “taste description / cooling effect” value ([1]; 10 ppm in water) was “mild cooling effect”.

In the case of `CCN(C)C(=O)C1CC(=O)N(C2CC(C)CCC2C(C)C)C1` (stereo not shown) [Structure IV, 1-(2-isopropyl-5-methyl-cyclohexyl)-5-oxo-pyrrolidine-3-carboxylic acid ethyl-methyl-amide], the “taste description / cooling effect” value ([1]; 10 ppm in water) is reported as “mild cooling effect”.

In the case of `COC(=O)C1CC(=O)N(C2CCCCC2C)C1` (stereo not shown) [Structure IX, 1-(2-methyl-cyclohexyl)-5-oxo-pyrrolidine-3-carboxylic acid methyl ester], the “taste description / cooling effect” value ([1]; 40 ppm in water) is reported as “slight upfront bitterness for ˜20-30 seconds and mild cooling effect that slightly built up in a few minutes”.

In the case of `CC1CCC(C(C)C)C(N2CC(C(=O)N3CCC3)CC2=O)C1` (stereo not shown) [Structure V, 4-(azetidine-1-carbonyl)-1-(2-isopropyl-5-methyl-cyclohexyl)-pyrrolidin-2-one], the “taste description / cooling effect” value ([1]; 40 ppm in water) is reported as “mild cooling, earthy, off-flavor, not bitter, napthalene, herbaceous, slight tingle effect on the tip of tongue, and garden hose, carrot, astringent, and waxy effect”.

For `CC1CCC(C(C)C)C(N2CC(C(=O)N3CCCC3)CC2=O)C1` (stereo not shown) [Structure VI, 1-(2-isopropyl-5-methyl-cyclohexyl)-4-(pyrrolidine-1-carbonyl)-pyrrolidin-2-one], the “taste description / cooling effect” value ([1]; 10 ppm in water) was “mild cooling effect with slight bitterness, the cooling effect built up over the time”, the “taste description / cooling effect” value ([1]; 50 ppm in water) was “cooling effect with bitterness, a menthol-like burning taste, and a nice built-up cooling taste” and the “overall effect of test candy versus control candy” value [2] was “substantial cooling effect”. For the same compound, the Profile ([2]; at 0-1 minute) was “At 0-1 minute: cooling with slight bitterness;”, the Profile ([2]; at 1-3 minutes) was “At 1-3 minutes: cooling built up;” and the Profile ([2]; at 3-5 minutes) was “At 3-5 minutes: cooling on the roof of mouth;”. For the same compound, the Profile ([2]; at 5-10 minutes) was “At 5-10 minutes: cooling with some bitterness;”, the Profile ([2]; at 10-20 minutes) was “At 10-20 minutes: cooling with mild bitterness;” and the Profile ([2]; at 20-30 minutes) was “At 20-30 minutes: cooling remained”. For the same compound, the Profile ([3]; 800 ppm, at 1-3 minutes) was “At 1-3 minutes: cooling delocalized on the tongue;”, the Profile ([3]; 800 ppm, at 3-5 minutes) was “At 3-5 minutes: mild cooling located on the tongue;” and the Profile ([3]; 800 ppm, at 5-10 minutes) was “At 5-10 minutes: moderate cooling on the tongue and the roof”. For the same compound, the Profile ([3]; 800 ppm, at 20-30 minutes) was “At 20-30 minutes: clean sensation with a little bitterness” and the “overall effect of test gum versus control gum” value ([3]; 800 ppm) was “pleasant cooling effect”.

With `CC1CCC(C(C)C)C(N2CC(C(=O)N3CCCCC3)CC2=O)C1` (stereo not shown) [Structure VII, 1-(2-isopropyl-5-methyl-cyclohexyl)-4-(piperidine-1-carbonyl)-pyrrolidin-2-one] the “taste description / cooling effect” value ([1]; 40 ppm in water) was “slight upfront bitterness, herbaceous flavor, and built-up cooling effect”, the “overall effect of test candy versus control candy” value [2] was “substantial cooling effect” and the Profile ([2]; at 0-1 minute) was “At 0-1 minute: bitterness;”. The Profile ([2]; at 1-3 minutes) was “At 1-3 minutes: cooling breath, strong cooling;”, the Profile ([2]; at 3-5 minutes) was “At 3-5 minutes: intense cooling;” and the Profile ([2]; at 5-10 minutes) was “At 5-10 minutes: intense cooling throughout mouth;”. The Profile ([2]; at 10-20 minutes) was “At 10-20 minutes: very strong cooling, almost burning;”, the Profile ([2]; at 20-30 minutes) was “At 20-30 minutes: strong and lasting cooling” and the Profile ([3]; 1200 ppm, at 0-1 minute) was “At 0-1 minute: cooling onset, throat and slight tongue irritation,”. The Profile ([3]; 1200 ppm, at 1-3 minutes) was “At 1-3 minutes: cooling and irritation delocalized with some”, the Profile ([3]; 1200 ppm, at 3-5 minutes) was “At 3-5 minutes: full mouth cooling, throughout mouth but not” and the Profile ([3]; 1200 ppm, at 5-10 minutes) was “At 5-10 minutes: strong cooling in mouth, concentrated in the”. For the same compound, the Profile ([3]; 1200 ppm, at 10-20 minutes) was “At 10-20 minutes: cooling peaked, consistent without any”, the Profile ([3]; 1200 ppm, at 20-30 minutes) was “At 20-30 minutes: strong cooling in mouth and throat,” and the “overall effect of test gum versus control gum” value ([3]; 1200 ppm) was “pleasant cooling effect”.

In the case of `CC1CCC(C(C)C)C(N2CC(C(=O)N3CCCCCC3)CC2=O)C1` (stereo not shown) [Structure VIII, 4-(azepane-1-carbonyl)-1-(2-isopropyl-5-methyl-cyclohexyl)-pyrrolidin-2-one], the “taste description / cooling effect” value ([1]; 40 ppm in water) is reported as “bitterness and cooling effect and both built up”.

With `CC(C)(C)C1CCCCC1N1CC(C(=O)N2CCCC2)CC1=O` (stereo not shown) [Structure X, 1-(2-tert-butyl-cyclohexyl)-4-(pyrrolidine-1-carbonyl)-pyrrolidin-2-one] the “taste description / cooling effect” value ([1]; 40 ppm in water) was “upfront bitterness, quinine, drying, greasy, and burning effect”.

With `CC(C)(C)C1CCCCC1N1CC(C(=O)N2CCCCC2)CC1=O` (stereo not shown) [Structure XI, 1-(2-tert-butyl-cyclohexyl)-4-(piperidine-1-carbonyl)-pyrrolidin-2-one] the “taste description / cooling effect” value ([1]; 40 ppm in water) was “some bitterness and drying, powdery, and minimal cooling effect”.

For `CC1CCC(C(C)C)C(N2CC(C(=O)N3CCCC3)CCC2=O)C1` (stereo not shown) [Structure XII, 1-(2-isopropyl-5-methyl-cyclohexyl)-5-(pyrrolidine-1-carbonyl)-piperidin-2-one], the “taste description / cooling effect” value ([1]; 40 ppm in water) was “slight cooling, and bitter and drying effect”.

For `CC1CCC(C(C)C)C(N2CC(C(=O)N3CCCCC3)CCC2=O)C1` (stereo not shown) [Structure XIII, 1-(2-isopropyl-5-methyl-cyclohexyl)-5-(piperidine-1-carbonyl)-piperidin-2-one], the “taste description / cooling effect” value ([1]; 40 ppm in water) was “grapefruit-like bitterness, and very mild cooling and drying effect”.
